Measurements taken from the NIST ThermoML archive (doi:10.1016/j.jct.2011.09.027).

Settings: Liquid; for viscosity: Concentric cylinders viscometry; for mass density: Vibrating tube method

CCOS(=O)(=O)[O-].CCn1cc[n+](C)c1 [1-ethyl-3-methylimidazolium ethyl sulfate]
Settings	mass density [kg/m3]	viscosity [mPa·s]
278.15 K, 101.33 kPa	–	309.1
283.12 K, 19658 kPa	1255.37	–
283.13 K, 29946 kPa	1259.21	–
283.14 K, 98469 kPa	1282.72	–
283.15 K, 101.33 kPa	1247.88	225.2
283.15 K, 40036 kPa	1262.89	–
283.15 K, 49963 kPa	1266.44	–
283.15 K, 59714 kPa	1269.86	–
283.15 K, 69986 kPa	1273.38	–
283.15 K, 79625 kPa	1276.61	–
283.15 K, 89964 kPa	1280	–
283.15 K, 109866 kPa	1286.29	–
283.15 K, 120746 kPa	1289.61	–
283.15 K, 129872 kPa	1292.32	–
283.15 K, 139485 kPa	1295.11	–
283.16 K, 1391 kPa	1248.37	–
283.18 K, 9875 kPa	1251.65	–
283.19 K, 5138 kPa	1249.82	–
293.13 K, 39626 kPa	1256.03	–
293.14 K, 1092 kPa	1241.38	–
293.14 K, 3910 kPa	1242.48	–
293.14 K, 9925 kPa	1244.83	–
293.14 K, 19948 kPa	1248.68	–
293.14 K, 29954 kPa	1252.45	–
293.14 K, 123824 kPa	1284.35	–
293.14 K, 129866 kPa	1286.19	–
293.14 K, 140209 kPa	1289.28	–
293.15 K, 101.33 kPa	1241.01	123.5
293.15 K, 49964 kPa	1259.78	–
293.15 K, 89997 kPa	1273.58	–
293.15 K, 99862 kPa	1276.81	–
293.15 K, 109863 kPa	1280.01	–
293.16 K, 80177 kPa	1270.3	–
293.17 K, 69997 kPa	1266.83	–
293.18 K, 60017 kPa	1263.35	–
298.13 K, 19821 kPa	1245.34	–
298.13 K, 29997 kPa	1249.26	–
298.13 K, 39886 kPa	1252.98	–
298.15 K, 49994 kPa	1256.71	–
298.15 K, 58874 kPa	1259.91	–
298.15 K, 69996 kPa	1263.83	–
298.16 K, 101.33 kPa	1237.53	97.2
298.16 K, 10471 kPa	1241.67	–
298.16 K, 79619 kPa	1267.14	–
298.16 K, 89998 kPa	1270.63	–
298.16 K, 99253 kPa	1273.66	–
298.16 K, 109867 kPa	1277.06	–
298.16 K, 120082 kPa	1280.24	–
298.16 K, 129865 kPa	1283.2	–
298.16 K, 139020 kPa	1285.9	–
298.17 K, 5192 kPa	1239.56	–
298.19 K, 981 kPa	1237.87	–
303.15 K, 101.33 kPa	–	77.1
313.1 K, 944 kPa	1227.8	–
313.14 K, 4705 kPa	1229.35	–
313.14 K, 39636 kPa	1243.24	–
313.14 K, 49994 kPa	1247.16	–
313.14 K, 60122 kPa	1250.92	–
313.15 K, 101.33 kPa	1227.47	50.9
313.15 K, 19818 kPa	1235.48	–
313.15 K, 30003 kPa	1239.51	–
313.15 K, 69996 kPa	1254.49	–
313.15 K, 109873 kPa	1268.13	–
313.15 K, 120354 kPa	1271.49	–
313.15 K, 129874 kPa	1274.47	–
313.16 K, 9378 kPa	1231.27	–
313.16 K, 79657 kPa	1257.92	–
313.16 K, 89993 kPa	1261.49	–
313.16 K, 99450 kPa	1264.69	–
313.16 K, 138377 kPa	1277.07	–
323.15 K, 101.33 kPa	–	35.1
333.12 K, 19852 kPa	1222.8	–
333.12 K, 79184 kPa	1246.16	–
333.13 K, 9972 kPa	1218.57	–
333.13 K, 89997 kPa	1250.05	–
333.13 K, 97104 kPa	1252.54	–
333.15 K, 101.33 kPa	1214.27	25.2
333.15 K, 4956 kPa	1216.39	–
333.15 K, 29992 kPa	1227.03	–
333.15 K, 69997 kPa	1242.77	–
333.15 K, 109862 kPa	1256.89	–
333.15 K, 121234 kPa	1260.63	–
333.16 K, 49995 kPa	1235.1	–
333.16 K, 60002 kPa	1238.99	–
333.16 K, 129872 kPa	1263.39	–
333.17 K, 1680 kPa	1214.95	–
333.17 K, 40144 kPa	1231.18	–
333.18 K, 139672 kPa	1266.43	–
343.15 K, 101.33 kPa	–	18.7
353.13 K, 19599 kPa	1209.45	–
353.13 K, 29993 kPa	1214.03	–
353.13 K, 39918 kPa	1218.29	–
353.13 K, 79974 kPa	1234.36	–
353.13 K, 119073 kPa	1248.32	–
353.14 K, 89917 kPa	1238.07	–
353.14 K, 99462 kPa	1241.53	–
353.14 K, 109824 kPa	1245.17	–
353.14 K, 129849 kPa	1251.87	–
353.14 K, 139892 kPa	1255.06	–
353.15 K, 101.33 kPa	1200.53	14.6
353.15 K, 49925 kPa	1222.47	–
353.15 K, 69993 kPa	1230.52	–
353.18 K, 59605 kPa	1226.41	–
353.19 K, 1193 kPa	1201.04	–
353.19 K, 4987 kPa	1202.81	–
353.19 K, 10093 kPa	1205.15	–
363.15 K, 101.33 kPa	1194.25	11.9
373.11 K, 118179 kPa	1236.88	–
373.12 K, 19814 kPa	1197.22	–
373.13 K, 10765 kPa	1192.98	–
373.13 K, 29997 kPa	1201.88	–
373.13 K, 39971 kPa	1206.31	–
373.13 K, 98959 kPa	1230.06	–
373.13 K, 109856 kPa	1233.98	–
373.13 K, 129856 kPa	1240.8	–
373.14 K, 49993 kPa	1210.64	–
373.15 K, 101.33 kPa	–	9.7
373.15 K, 59698 kPa	1214.72	–
373.15 K, 90001 kPa	1226.72	–
373.15 K, 140000 kPa	1244.08	–
373.16 K, 69987 kPa	1218.92	–
373.17 K, 1377 kPa	1188.48	–
373.17 K, 5226 kPa	1190.34	–
373.17 K, 79962 kPa	1222.87	–
393.12 K, 910 kPa	1175.14	–
393.12 K, 59389 kPa	1202.77	–
393.12 K, 69993 kPa	1207.25	–
393.12 K, 79111 kPa	1210.99	–
393.13 K, 5153 kPa	1177.31	–
393.13 K, 89994 kPa	1215.29	–
393.14 K, 99376 kPa	1218.86	–
393.15 K, 49959 kPa	1198.64	–
393.15 K, 109877 kPa	1222.71	–
393.15 K, 119972 kPa	1226.26	–
393.15 K, 129874 kPa	1229.6	–
393.15 K, 139106 kPa	1232.59	–
393.16 K, 10368 kPa	1179.94	–
393.16 K, 20408 kPa	1184.89	–
393.16 K, 29995 kPa	1189.49	–
393.16 K, 39725 kPa	1194.02	–
413.12 K, 9823 kPa	1167.05	–
413.12 K, 98120 kPa	1207.66	–
413.13 K, 19924 kPa	1172.37	–
413.13 K, 109866 kPa	1212.06	–
413.13 K, 120361 kPa	1215.8	–
413.15 K, 5311 kPa	1164.62	–
413.15 K, 29993 kPa	1177.5	–
413.15 K, 89994 kPa	1204.48	–
413.15 K, 129864 kPa	1219.02	–
413.17 K, 1563 kPa	1162.57	–
413.17 K, 39896 kPa	1182.37	–
413.17 K, 49998 kPa	1187.17	–
413.17 K, 59469 kPa	1191.52	–
413.17 K, 69996 kPa	1196.16	–
413.17 K, 139292 kPa	1222.06	–
413.18 K, 79893 kPa	1200.36	–
